Where two headings read alike, the source gives them in different places.
Legend:
HTT mRNA [1] = experiment: Gene panel canonical junction qPCR assay, HTT CJ mRNA decrease; assay type: cell-based, human
Description: (§1) Compounds described herein were used to modulate RNA transcript abundance in cells. The expression of a target mRNA was measured by detecting the formation of an exon-exon junction in the canonical transcript (CJ). A compound mediated exon-inclusion event was detected by observing an increase in formation of a new junction with an alternative exon (AJ). Real-time qPCR assays were used to detect these splicing switches and interrogate the potency of various compounds towards different target genes. A high-throughput real time quantitative PCR (RT-qPCR) assay was developed to measure these two isoforms of the mRNA (CJ and AJ) for exemplary genes, such as HTT, SMN2, and MYB, together with a control housekeeping gene, GAPDH or GUSB or PPIA, used for normalization. Briefly, the A673 or K562 cell line was treated with various compounds described herein (e.g., compounds of Formula (I), (I), or (III)). After treatment, the levels of the HTT, MYB, or SMN2 mRNA targets were determined from each sample of cell lysate by cDNA synthesis followed by qPCR.
(§2) The data analysis was performed by first determining the ΔCt vs the housekeeper gene. This ΔCt was then normalized against the DMSO control (ΔΔCt) and converted to RQ (relative quantification) using the 2^(−ΔΔCt) equation. The RQ were then converted to a percentage response by arbitrarily setting an assay window of 3.5 and 4.0 ΔCt for HTT-CJ and MYB-CJ respectively and an assay window of 9 and 3 ΔCt for HTT-AJ and MYB-AJ in 96 well format (50,000 K562 cells/well and 15,000 A673 cells per well) and an assay window of 3 and 4 ΔCt for HTT-CJ and MYB-CJ respectively and an assay window of 5 and 3 ΔCt for HTT-AJ and MYB-AJ respectively in 384 well format (8,000 K562 cells/well example). […] The percentage response was then fitted to the 4 parametric logistic equation to evaluate the concentration dependence of compound treatment. The increase in AJ mRNA is reported as AC50 (compound concentration having […] in AJ increase) while the decrease in CJ mRNA levels is reported as IC50 (compound concentration having 50) response in CJ decrease).
(§3) Additional studies were carried out for a larger panel of genes using the protocol provided above. The junction between flanking upstream and downstream exons was used to design canonical junction qPCR assays. At least one of the forward primer, reverse primer or the CY5-labeled 5′ nuclease probe (with 3′ quencher such as ZEN/Iowa Black FQ) was designed to overlap with the exon junction to capture the CJ mRNA transcript. BLAST was used to confirm the specificity of the probeset and parameters such as melting temperature, GC content, amplicon size, and primer dimer formation are considered during their design. Data for the decrease in CJ mRNA levels for four exemplary genes (HTT, SMN2, MYB, and Target C) analyzed in this panel are reported as IC50 (compound concentration having […] in CJ decrease).
(§4) A summary of the results from the panel is illustrated in Tables 5A and 51B, wherein “A” represents an IC50 of less than 100 nM; “B” represents an IC50 of between 100 nM and 1 μM; and “C” represents an IC50 of between 1 μM and 10 μM; and “D” represents an IC50 of greater than 10 μM.

MYB mRNA [2] = experiment: Gene panel canonical junction qPCR assay, MYB CJ mRNA decrease; assay type: cell-based, human
Description: as §1, §2, §3, §4

Target C mRNA = experiment: Gene panel canonical junction qPCR assay, Target C CJ mRNA decrease; assay type: cell-based; conditions: Homo sapiens, decrease in CJ mRNA levels, read-out: Target C IC50
Description: as §1, §2, §3, §4

SMN2 mRNA = experiment: Gene panel canonical junction qPCR assay, SMN2 CJ mRNA decrease; assay type: cell-based, human
Description: as §1, §2, §3, §4

HTT mRNA [3] = experiment: Splicing RT-qPCR assay, HTT canonical (CJ) and alternative (AJ) junction mRNA; assay type: cell-based; conditions: Homo sapiens, A673 or K562 cells, 24 hours
Description: as §1
(§5) • Cells-to-CT 1-step kit: ThermoFisher A25602, Cells-to-CT lysis reagent: ThermoFisher 4391851C, TaqMan™ Fast Virus 1-Step Master Mix: ThermoFisher 4444436 • GAPDH: VIC-PL, ThermoFisher 4326317E (Assay: Hs99999905_ml)—used for K562/suspension cell lines • GUSB: VIC-PL, ThermoFisher 4326320E (Assay: Hs99999908_ml)—used for K562/suspension cell lines • PPIA: VIC-PL, ThermoFisher 4326316E (Assay: Hs99999904_ml)—used for A673/adherent cell lines
(§6) The A673 cell line was cultured in DMEM with 10% FBS. Cells were diluted with full growth media and plated in a 96-well plate (15,000 cells in 100 ul media per well). The plate was incubated at 37° C. with 5% CO2 for 24 hours to allow cells to adhere. An 11-point 3-fold serial dilution of the compounds was made in DMSO then diluted in media in an intermediate plate. Compounds were transferred from the intermediate plate to the cell plate with the top dose at a final concentration of 10 uM in the well. Final DMSO concentration was kept at or below 0.25%. The cell plate was returned to the incubator at 37° C. with 5% CO2 for an additional 24 hours.
(§7) The K562 cell line was cultured in IMDM with 10% FBS. For K562, cells were diluted with full growth media and plated in either a 96-well plate (50,000 cells in 50 uL media per well) or a 384-well plate (8,000-40,000 cells in 45 uL media per well). An 11-point 3-fold serial dilution of the compounds were made in DMSO then diluted in media in an intermediate plate. Compound was transferred from the intermediate plate to the cell plate with the top dose at a final concentration of 10 uM in the well. Final DMSO concentration was kept at or below 0.25%. Final volume was 100 uL for 96-well plate and 50 uL for 384-well plate. The cell plate was then placed in an incubator at 37° C. with 5% CO2 for 24 hours.
(§8) The cells were then gently washed with 50 uL-100 uL cold PBS before proceeding to addition of lysis buffer. 30 uL-50 uL of room temperature lysis buffer with DNAse I (and optionally RNAsin) was added to each well. Cells were shaken/mixed thoroughly at room temperature for 5-10 minutes for lysis to take place and then 3 uL-5 uL of room temperature stop solution was added and wells were shaken/mixed again. After 2-5 minutes, the cell lysate plate was transferred to ice for RT-qPCR reaction setup. The lysates could also be frozen at −80° C. for later use.
(§9) In some cases, a direct lysis buffer was used. An appropriate volume of 3×lysis buffer (10 mM Tris, 150 mM NaCl, 1.5%-2.5% Igepal and 0.1-1 U/uL RNAsin, pH 7.4) was directly added to either K562 or A673 cells in media and mixed by pipetting 3 times. The plates were then incubated at room temperature with shaking/rocking for 20-50 minutes to allow for lysis to take place. After this time, the cell lysate plate was transferred to ice to set up for the RT-qPCR reactions. The lysates could also be frozen at −80° C. for later use. […]

MYB mRNA [4] = experiment: Splicing RT-qPCR assay, MYB canonical (CJ) and alternative (AJ) junction mRNA; assay type: cell-based; conditions: Homo sapiens, A673 or K562 cells, 24 hours
Description: as §1, §5, §6, §7, §8, §9

[5] = Homo sapiens, decrease in CJ mRNA levels, read-out: HTT IC50
[6] = Homo sapiens, decrease in CJ mRNA levels, read-out: MYB IC50
[7] = Homo sapiens, decrease in CJ mRNA levels, read-out: SMN2 IC50
[8] = decrease in canonical junction mRNA
[9] = increase in alternative junction mRNA

IC50 (HTT mRNA [1]; [5]) [µM]	IC50 (MYB mRNA [2]; [6]) [nM]	IC50 (Target C mRNA) [µM]	IC50 (SMN2 mRNA; [7]) [µM]	SMILES	further results
1 to 10	100 to 1000	1 to 10		Cc1cn2cc(NC(=O)c3sc(N4CCNC(C)C4)cc3F)cc(F)c2n1 (stereo not shown) [Compound 601]	
> 10	> 10000		< 0.1	Cc1nc2c(F)cc(NC(=O)c3sc(N4CCNC(C)C4)cc3F)cc2s1 (stereo not shown) [Compound 638]	
				Cc1cn2cc(NC(=O)c3sc(C4CCNCC4)cc3F)cc(F)c2n1 [Compound 650]	IC50 (HTT mRNA [1]; decrease in CJ mRNA levels, read-out: HTT IC50): 1 to 10 µM; IC50 (MYB mRNA [2]; decrease in CJ mRNA levels, read-out: MYB IC50): 100 to 1000 nM; IC50 (SMN2 mRNA; decrease in CJ mRNA levels, read-out: SMN2 IC50): > 10 µM
				Cc1cn2cc(NC(=O)c3ccc(N4CCN(C)C(C)C4)c4ccnnc34)cc(F)c2n1 (stereo not shown) [Compound 129]	IC50 (HTT mRNA [1]; Homo sapiens, canonical junction qPCR, read-out: HTT IC50 (decrease in CJ mRNA levels)): 1 to 10 µM; IC50 (MYB mRNA [2]; Homo sapiens, canonical junction qPCR, read-out: MYB IC50 (decrease in CJ mRNA levels)): 100 to 1000 nM; IC50 (HTT mRNA [3]; [8]): 1 to 10 µM; AC50 (HTT mRNA [3]; [9]): 1 to 10 µM; IC50 (MYB mRNA [4]; [8]): 100 to 1000 nM; AC50 (MYB mRNA [4]; [9]): 100 to 1000 nM; IC50 (SMN2 mRNA; Homo sapiens, canonical junction qPCR, read-out: SMN2 IC50 (decrease in CJ mRNA levels)): < 0.1 µM
> 10	> 10000		> 10	Cc1cn2cc(NC(=O)c3sc(C4CCNCC4)cc3F)nc2c(C)n1 [Compound 667]	
> 10	1000 to 10000		> 10	Cc1cn2cc(NC(=O)c3sc([C@@H]4CCN[C@H](C)C4)cc3F)cc(C(F)(F)F)c2n1 [Compound 668]	
0.1 to 1	1000 to 10000		1 to 10	Cc1cn2cc(NC(=O)c3sc(C4CCNCC4)cc3F)cc(Cl)c2n1 [Compound 654]	
1 to 10	100 to 1000		> 10	Cc1cn2cc(NC(=O)c3sc(C4CCNCC4)c(C#N)c3Cl)cc(F)c2n1 [Compound 670]	
0.1 to 1	100 to 1000	0.1 to 1		Cc1cn2cc(NC(=O)c3sc([C@H]4CCN[C@@H](C)C4)cc3F)cc(F)c2n1 [Compound 590]	
1 to 10	100 to 1000	> 10		CCC1CN(c2cc(F)c(C(=O)Nc3cc(F)c4nc(C)cn4c3)s2)CCN1 (stereo not shown) [Compound 603]	
> 10	100 to 1000	> 10		COc1cc(N2CCNC(C)C2)sc1C(=O)Nc1cc(F)c2nc(C)cn2c1 (stereo not shown) [Compound 597]	
0.1 to 1	< 100		1 to 10	Cn1cc2ccc(NC(=O)c3sc(C4CCNCC4)cc3F)cc2n1 [Compound 655]	
> 10	1000 to 10000	> 10		Cc1cn2cc(NC(=O)c3cc(F)c(C4CCNCC4)s3)cc(F)c2n1 [Compound 661]	

SMILES	IC50 (HTT mRNA [1]; [5]) [µM]	IC50 (MYB mRNA [2]; [6]) [nM]	IC50 (Target C mRNA) [µM]	IC50 (SMN2 mRNA; [7]) [µM]	further results
Cc1cn2cc(NC(=O)c3sc(N4C[C@H]5CC[C@@H](C4)N5)cc3F)cc(F)c2n1 [Compound 616]	> 10	1000 to 10000		> 10	
